The values below come from ChEMBL document CHEMBL5728428, “Bicyclic lactams and methods of use thereof” (2021).

The target in this test is T1, Receptor-interacting serine/threonine-protein kinase 1 (Homo sapiens, UniProt Q13546).
T1 sequence (Q13546 whole entry): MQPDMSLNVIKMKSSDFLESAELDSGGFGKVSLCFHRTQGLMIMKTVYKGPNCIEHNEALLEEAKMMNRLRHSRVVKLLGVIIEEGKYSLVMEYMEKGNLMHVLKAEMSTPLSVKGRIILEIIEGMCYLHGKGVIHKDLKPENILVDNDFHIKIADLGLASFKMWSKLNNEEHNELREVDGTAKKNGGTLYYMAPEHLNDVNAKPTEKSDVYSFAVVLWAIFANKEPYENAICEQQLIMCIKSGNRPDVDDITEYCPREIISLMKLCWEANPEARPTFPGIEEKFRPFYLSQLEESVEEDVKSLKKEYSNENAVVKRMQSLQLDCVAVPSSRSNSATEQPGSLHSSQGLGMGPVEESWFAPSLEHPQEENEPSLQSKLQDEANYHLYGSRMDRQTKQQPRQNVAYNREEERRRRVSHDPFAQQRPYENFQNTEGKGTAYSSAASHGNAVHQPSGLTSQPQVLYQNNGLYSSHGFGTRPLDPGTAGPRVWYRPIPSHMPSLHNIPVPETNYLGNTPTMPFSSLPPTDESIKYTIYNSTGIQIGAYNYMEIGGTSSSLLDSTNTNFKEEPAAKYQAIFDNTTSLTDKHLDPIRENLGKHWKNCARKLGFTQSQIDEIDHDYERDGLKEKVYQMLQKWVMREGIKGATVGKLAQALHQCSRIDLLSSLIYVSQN
The test can be described thus: Biochemical Assay: The ability of the receptor interacting protein kinase (RIPK1) to catalyze the hydrolysis of adenosine-5′-triphosphate (ATP) is monitored using the Transcreener ADP (adenosine-5′-diphosphate) assay (BellBrook Labs).

pKi: −log10 of the molar value.

Usually pKi stands for −log10 of the Ki, conventionally taken in molar units. A low value points to a large Ki. Molecule `CN1C(=O)[C@@H](NC(=O)c2n[nH]c3c2CC(C)(C)OC3)COc2ccccc21` showed a pKi of 6.33.
